From patent US20240246967A1, “AXL COMPOUNDS” (ARCUS BIOSCIENCES, INC., priority 2021, published 2024)

Target: T1, human TYRO3 (Homo sapiens, UniProt Q06418)
T1 construct: purchased Invitrogen
T1 sequence (Q06418 41-890): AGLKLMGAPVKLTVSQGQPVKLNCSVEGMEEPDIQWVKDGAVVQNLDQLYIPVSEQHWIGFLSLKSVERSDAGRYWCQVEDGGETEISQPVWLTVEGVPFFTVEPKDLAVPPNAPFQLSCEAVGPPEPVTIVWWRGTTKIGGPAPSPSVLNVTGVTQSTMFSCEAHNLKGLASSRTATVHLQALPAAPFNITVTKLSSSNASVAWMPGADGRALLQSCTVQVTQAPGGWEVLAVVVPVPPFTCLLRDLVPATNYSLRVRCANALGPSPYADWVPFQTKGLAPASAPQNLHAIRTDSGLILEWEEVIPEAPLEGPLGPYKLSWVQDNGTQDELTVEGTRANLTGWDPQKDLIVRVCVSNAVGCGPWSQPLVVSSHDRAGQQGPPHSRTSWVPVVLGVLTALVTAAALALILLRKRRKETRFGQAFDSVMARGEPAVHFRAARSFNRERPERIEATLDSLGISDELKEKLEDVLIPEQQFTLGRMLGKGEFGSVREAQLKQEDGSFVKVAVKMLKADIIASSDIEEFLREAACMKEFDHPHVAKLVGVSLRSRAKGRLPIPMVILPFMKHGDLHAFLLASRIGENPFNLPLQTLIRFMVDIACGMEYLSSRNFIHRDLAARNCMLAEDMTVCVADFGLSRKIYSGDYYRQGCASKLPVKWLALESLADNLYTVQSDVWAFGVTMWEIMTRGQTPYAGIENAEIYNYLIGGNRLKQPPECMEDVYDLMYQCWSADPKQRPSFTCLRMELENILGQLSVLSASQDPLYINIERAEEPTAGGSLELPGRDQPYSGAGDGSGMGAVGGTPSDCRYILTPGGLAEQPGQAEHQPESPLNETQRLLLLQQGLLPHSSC
Experiment: HTRF KinEASE-TK biochemical potency assay, TYRO3
Details: 1 nM TYRO3, 700 μM ATP, 800 nM TK Substrate-biotin
In short: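 HTRF 665/620 nm read-out after streptavidin-XL665/anti-phosphotyrosine cryptate detection (1 h RT). Final reaction: 5 nM AXL or 1 nM TYRO3/MER, 800 nM TK substrate-biotin, 700 μM ATP, pH 7.4 HEPES buffer, 1% DMSO, 2 h RT, after 1 h enzyme–compound preincubation.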

| IC50 [nM] | SMILES |
| --- | --- |
| 100 to 1000 | O=C1OCCN1c1ccc(-c2n[nH]c3ncc(-c4ccc5c(c4)CC[C@@H](N4C6COCC4C6)CC5)cc23)cc1 [Example 121, 3-(4-{5-[(7S)-7-{3-oxa-6-azabicyclo[3.1.1]heptan-6-yl}-6,7,8,9-tetrahydro-5H-benzo[7]annulen-2-yl]-2H-pyrazolo[3,4-b]pyridin-3-yl}phenyl)-1,3-oxazolidin-2-one] |
| > 1000 | O=C1CCCN1c1ccc(-c2n[nH]c3ncc(-c4ccc5c(c4)CC[C@@H](N4C6COCC4C6)CC5)cc23)cc1 [Example 122, 1-(4-{5-[(7S)-7-{3-oxa-6-azabicyclo[3.1.1]heptan-6-yl}-6,7,8,9-tetrahydro-5H-benzo[7]annulen-2-yl]-2H-pyrazolo[3,4-b]pyridin-3-yl}phenyl)pyrrolidin-2-one] |
| 100 to 1000 | COCCOc1ccc(-c2n[nH]c3ncc(-c4ccc5c(c4)CC[C@@H](N4C6COCC4C6)CC5)cc23)cc1 [Example 123, 6-[(7S)-2-{3-[4-(2-methoxyethoxy)phenyl]-2H-pyrazolo[3,4-b]pyridin-5-yl}-6,7,8,9-tetrahydro-5H-benzo[7]annulen-7-yl]-3-oxa-6-azabicyclo[3.1.1]heptane] |
| 100 to 1000 | CC(C)(C)S(=O)(=O)c1ccc(-c2n[nH]c3ncc(-c4ccc5c(c4)CC[C@@H](N4C6COCC4C6)CC5)cc23)cc1 [Example 124, 6-[(7S)-2-{3-[4-(2-methylpropane-2-sulfonyl)phenyl]-2H-pyrazolo[3,4-b]pyridin-5-yl}-6,7,8,9-tetrahydro-5H-benzo[7]annulen-7-yl]-3-oxa-6-azabicyclo[3.1.1]heptane] |
| 100 to 1000 | CN(C)C(=O)c1ccc(-c2n[nH]c3ncc(-c4ccc5c(c4)CC[C@@H](N4C6COCC4C6)CC5)cc23)cc1 [Example 125, N,N-Dimethyl-4-{5-[(7S)-7-{3-oxa-6-azabicyclo[3.1.1]heptan-6-yl}-6,7,8,9-tetrahydro-5H-benzo[7]annulen-2-yl]-2H-pyrazolo[3,4-b]pyridin-3-yl}benzamide] |
| > 1000 | c1cc2c(cc1-c1cnc3[nH]nc(-c4ccc(N5C[C@H]6C[C@@H]5CO6)cc4)c3c1)CC[C@@H](N1C3COCC1C3)CC2 [Example 126, (1R,4R)-5-(4-{5-[(7S)-7-{3-oxa-6-azabicyclo[3.1.1]heptan-6-yl}-6,7,8,9-tetrahydro-5H-benzo[7]annulen-2-yl]-2H-pyrazolo[3,4-b]pyridin-3-yl}phenyl)-2-oxa-5-azabicyclo[2.2.1]heptane] |
| 100 to 1000 | FC1CN(c2ccc(-c3c[nH]c4ncc(-c5ccc6c(c5)CC[C@@H](N5C7COCC5C7)CC6)cc34)cc2)C1 [Example 127, 6-[(7S)-2-{3-[4-(3-fluoroazetidin-1-yl)phenyl]-1H-pyrrolo[2,3-b]pyridin-5-yl}-6,7,8,9-tetrahydro-5H-benzo[7]annulen-7-yl]-3-oxa-6-azabicyclo[3.1.1]heptane] |
